Data on seven compounds can be found in ChEMBL document CHEMBL5136972, “Targeting SARS-CoV-2 Proteases and Polymerase for COVID-19 Treatment: State of the Art and Future Opportunities” (J Med Chem, 2022).

The structures appear in SMILES notation.

In series [1] the target is T1, Replicase polyprotein 1ab (Severe acute respiratory syndrome coronavirus 2, UniProt P0DTD1). Put plainly: Inhibition of SARS CoV-2 PL protease.
Series [2] can be described thus: Half life in Sprague-Dawley rat at 10 mg/kg, iv measured after up to 24 hrs by LC-MS/MS analysis. The class given is ADME, organism-based. The note with it: in vivo.
The nature of series [3]: Clearance in Beagle dog at 5 mg/kg, iv measured after up to 24 hrs by LC-MS/MS analysis. The class given is ADME, organism-based, Canis lupus familiaris. The note with it: in vivo.
For series [4], the target named is T1, Replicase polyprotein 1ab. Put plainly: Inhibition of N-terminal recombinant SARS CoV 2 3CL protease expressed in Escherichia coli BL21-DE3 cells using MCA-AVLQSGFR-Lys(Dnp)-Lys-NH2 as substrate by FRET assay.
Series [5] can be described thus: Cmax in CD-1 mouse at 5 mg/kg, iv measured after up to 24 hrs by LC-MS/MS analysis. The class given is ADME, organism-based. Details: dose 5 mg/kg, time < 24 hrs, route iv. Conditions: in vivo.
Series [6] in a line: AUClast in Sprague-Dawley rat at 10 mg/kg, iv measured after up to 24 hrs by LC-MS/MS analysis. The class given is ADME, organism-based. Details: time < 24 hrs, dose 10 mg/kg, route iv. Conditions: in vivo.
Series [7] concerns SARS-CoV-2. Put plainly: Antiviral activity against SARS CoV-2 infected in African green monkey Vero cells assessed as inhibition of plaque formation by viral plaque assay. The series is classed as functional, organism-based. The note with it: Severe acute respiratory syndrome coronavirus 2, Vero.
The nature of series [8]: Clearance in CD-1 mouse at 5 mg/kg, iv measured after up to 24 hrs by LC-MS/MS analysis. The class given is ADME, organism-based. The note with it: in vivo.
Series [9] in a line: Half life in CD-1 mouse at 5 mg/kg, iv measured after up to 24 hrs by LC-MS/MS analysis. The series is classed as ADME, organism-based. The note with it: in vivo.
Series [10] in a line: Clearance in Sprague-Dawley rat at 10 mg/kg, iv measured after up to 24 hrs by LC-MS/MS analysis. The class given is ADME, organism-based. Conditions: in vivo.
Series [11] in a line: Half life in Beagle dog at 5 mg/kg, iv measured after up to 24 hrs by LC-MS/MS analysis. The note with it: in vivo. The series is classed as ADME, organism-based, Canis lupus familiaris.
The nature of series [12]: Cytotoxicity against African green monkey Vero E6 cells by CCK-8 assay. The class given is toxicity, cell-based, Vero C1008. The note with it: chlorocebus sabaeus. For orientation: Tetrazolium assays rely on reduction of a dye to a coloured formazan, in cell work by metabolically active cells.
Series [13] in a line: Bioavailability in CD-1 mouse at 5 mg/kg, iv measured after up to 24 hrs by LC-MS/MS analysis. The class given is ADME, organism-based. Conditions: in vivo.
Series [14] is described as follows: AUClast in Beagle dog at 5 mg/kg, iv measured after up to 24 hrs by LC-MS/MS analysis. The class given is ADME, organism-based, Canis lupus familiaris. Set-up: time < 24 hrs, dose 5 mg/kg, route iv. Conditions: in vivo.
The subject of series [15] is SARS-CoV-2. The series is described as follows: Antiviral activity against SARS CoV-2 infected in human Calu-3 cells measured after 24 hrs by qRT-PCR analysis. The class given is functional, organism-based. The note with it: Severe acute respiratory syndrome coronavirus 2, Calu-3, 24 h. (In qPCR the cycle at which signal appears reflects the starting amount.)
The target in series [16] is T1, Replicase polyprotein 1ab. Put plainly: Inhibition of C-terminal 6-His-tagged recombinant SARS CoV-2 3CL protease expressed in Escherichia coli BL21-Gold DE3 cells by FRET assay.
A short description of series [17]: Cytotoxicity against African green monkey Vero E6 cells incubated for 3 hrs by CCK-8 assay. The series is classed as toxicity, cell-based, Vero C1008. Conditions: chlorocebus sabaeus.
Series [18] can be described thus: Oral bioavailability in CD1 mouse at 50 mg/kg administered as single dose by LC-MS/MS analysis. The note with it: in vivo. The series is classed as ADME, organism-based.
Series [19] in a line: Oral bioavailability in CD1 mouse at 150 mg/kg administered as single dose by LC-MS/MS analysis. The class given is ADME, organism-based. The note with it: in vivo.
Series [20] deals with SARS-CoV-2. Put plainly: Antiviral activity against SARS CoV-2 clinical isolate 2019-nCoV/USA-WA1/2020 infected in human Calu-3 cells measured after 72 hrs by plaque assay. The series is classed as functional, organism-based. Conditions: Severe acute respiratory syndrome coronavirus 2, 2019-nCoV/USA-WA1/2020, Calu-3, 72 h.
Series [21] in a line: Half life in CD1 mouse at 150 mg/kg, po administered as single dose by LC-MS/MS analysis. Conditions: in vivo. The class given is ADME, organism-based.
Series [22] deals with Middle East respiratory syndrome-related coronavirus. The series is described as follows: Antiviral activity against […] infected in HAE cells incubated for 48 hrs by qRT-PCR analysis. The series is classed as functional, organism-based.
Series [23] can be described thus: Oral bioavailability in CD1 mouse at 500 mg/kg administered as single dose by LC-MS/MS analysis. The class given is ADME, organism-based. Conditions: in vivo.
Series [24] can be described thus: Cytotoxicity against African green monkey Vero E6 cells infected with SARS CoV-2 clinical isolate 2019-nCoV/USA-WA1/2020 incubated for 48 hrs by CellTiter-Glo assay. The class given is toxicity, cell-based, Vero C1008. The note with it: chlorocebus sabaeus. (Cellular ATP, detected with luciferase, serves as a proxy for viable cell number.)
Series [25] in a line: Half life in CD1 mouse at 50 mg/kg, po administered as single dose by LC-MS/MS analysis. The class given is ADME, organism-based. Conditions: in vivo.
Series [26] in a line: Drug distribution in CD1 mouse liver at 150 to 500 mg/kg, po measured after 8 hrs by LC-MS/MS analysis. Conditions: in vivo, dose 150-500 mg/kg. The series is classed as ADME, organism-based.
The subject of another series is SARS-CoV. Put plainly: Antiviral activity against […] infected in HAE cells incubated for 48 hrs by qRT-PCR analysis. The class given is functional, organism-based.
Series [27] in a line: Half life in CD1 mouse at 500 mg/kg, po administered as single dose by LC-MS/MS analysis. The series is classed as ADME, organism-based. Conditions: in vivo.
Series [28] relates to SARS-CoV-2. The series is described as follows: Antiviral activity against SARS CoV-2 clinical isolate 2019-nCoV/USA-WA1/2020 infected in African green monkey Vero E6 cells incubated for 48 hrs by CellTiter-Glo assay. Conditions: Severe acute respiratory syndrome coronavirus 2, 2019-nCoV/USA-WA1/2020, Vero C1008, 48 h. The series is classed as functional, organism-based.

For `CC(=O)N[C@@H](CCc1nc2ccccc2s1)C(=O)N[C@@H](CN)C(=O)NCC(=O)NC/C=C/C(=O)O`, inhibition in series [1] was half-maximal at 10 µM (IC50).

With `CC(=O)N[C@@H](CCc1ccc(O)cc1)C(=O)N[C@@H](CN)C(=O)NCC(=O)NC/C=C/C(=O)O`, the IC50 (commonly the point on the concentration scale where inhibition reaches its midpoint) in series [1] worked out at 10 µM.

In the case of `O=C[C@H](C[C@@H]1CCNC1=O)NC(=O)[C@H](CC1CC1)NC(=O)c1cc2ccccc2[nH]1`, the half-life – broadly, how long it takes for the measured level to halve – in [2] was 456 min; in [9], 264 min; in series [11], 330 min. In addition, the clearance (commonly the rate of elimination divided by the concentration) in series [3] was 5.8 mL/min/kg; in series [8] it was 17 mL/min/kg; in series [10], 4.01 mL/min/kg. Also, the IC50 in series [4] was 53 nM. Besides, the Cmax (in general, the maximum level reached in the sampled fluid or tissue) in series [5] was more than 2360 ng/mL. Moreover, the values for the AUC(0-t) at 24 h in series [6] and in series [14] were 41500 ng·h/mL and 14900 ng·h/mL, respectively. Moreover, the EC50 (in general, the midpoint of the concentration-response curve) in the series on SARS-CoV-2 [7] was 520 nM. For the same compound, in series [12], the half-maximal cytotoxic concentration (CC50) (in general, the concentration that lowers cell viability or growth by half) was more than 100 µM. In addition, the bioavailability (in general, the share of a dose that reaches the circulation, judged against a reference dose that is usually intravenous) in series [13] is more than 85%.

As for `Nc1cccn([C@@H](CC2CC2)C(=O)N[C@@H](C[C@@H]2CCNC2=O)C(=O)C(=O)NCc2ccccc2)c1=O`, the EC50 with SARS-CoV-2 [15] is more than 40 µM. The IC50 in [16] amounted to 1340 nM.

`O=c1cc(-c2ccccc2)oc2cc(O)c(O)c(O)c12` [BAICALEIN]: the CC50 at 3 h in series [17] is more than 200 µM.

For `O=C(O)[C@H]1O[C@@H](Oc2cc3oc(-c4ccccc4)cc(=O)c3c(O)c2O)[C@H](O)[C@@H](O)[C@@H]1O` [BAICALIN], the 50% cytotoxic concentration (CC50) at 3 h in [17] is more than 200 µM.

In the case of `O=c1nc(NO)ccn1[C@@H]1O[C@H](CO)[C@@H](O)[C@H]1O` [N-HYDROXYCYTIDINE], the values for the bioavailability in [18], in [19] and in series [23] were 56%, 43% and 36%, respectively. Moreover, the EC50 worked out at 80 nM in the series on SARS-CoV-2 [20], 24 nM in series [22], 140 nM with SARS-CoV and 300 nM in the series with SARS-CoV-2 [28]. Besides, the half-life in series [21] is 192 min; in series [25], 312 min; in [27] it was 162 min. The compound also yielded a half-maximal cytotoxic concentration (CC50) at 48 h in series [24] of more than 10 µM. The Drug uptake in series [26] is on record as 10 nmol/g.
